Measurements as given in patent publication US4755513A, “Antimicrobial 1-substituted phenyl-4-oxoquinoline-3-carboxylic acid compounds” (Otsuka Pharmaceutical Company, Limited, priority 1985, dated 1988).

Key:
Test in all cases: MIC by serial dilution method on agar plate
Type in all cases: cell-based
[1] = tested on: Staphylococcus aureus FDA 209P
Text: (§1) The microorganisms were used in a concentration of 1×10^8 cells/ml (O.D. 660 mμ, 0.07-0.16) and 1×10^6 cells/ml (100 folds dilution).

[2] = tested on: Staphylococcus pyrogens IID S-23; conditions: 1 × 10^8 cells/ml
Text: as §1

[3] = tested on: Acinetobacter calcoaceticus AC-54
Text: (§2) Chemotherapy, 22, 1126-1128 (1974)]. The microorganisms were used in a concentration of 1×10^8 cells/ml (O.D. 660 mμ, 0.07-0.16) and 1×10^6 cells/ml (100 folds dilution).

[4] = tested on: Bacillus subtilis ATCC 6633
Text: as §2

[5] = tested on: Escherichia coli NIHJ JC-2
Text: as §2

[6] = tested on: Escherichia coli No. 29
Text: as §2

[7] = tested on: Klebsiella pneumoniae NCTC 9632
Text: as §2

[8] = tested on: Proteus inconstans IFO 12930
Text: as §2

[9] = tested on: Proteus morganii IID Kono
Text: as §2

[10] = tested on: Pseudomonas aeruginosa ATCC 10145
Text: as §2

[11] = tested on: Pseudomonas aeruginosa E-2
Text: as §2

[12] = tested on: Serratia marcescens IFO 12648
Text: as §2

[13] = tested on: Streptococcus faecalis IFO 12580
Text: as §2

6,8-Difluoro-1-(4-fluorophenyl)-7-(1-piperazinyl)-1,4-dihydro-4-oxoquinoline-3-carboxylic acid [Test Compd. No. 2]
minimum inhibitory concentration (MIC) ([1]; 1 × 10^6 cells/ml): 0.195 | minimum inhibitory concentration (MIC) ([1]; 1 × 10^8 cells/ml): 0.195 | minimum inhibitory concentration (MIC) [2]: 6.25 | minimum inhibitory concentration (MIC) ([3]; 1 × 10^6 cells/ml): 0.781 | minimum inhibitory concentration (MIC) ([3]; 1 × 10^8 cells/ml): 1.56 | minimum inhibitory concentration (MIC) ([4]; 1 × 10^6 cells/ml): 0.097 | minimum inhibitory concentration (MIC) ([4]; 1 × 10^8 cells/ml): 0.195 | minimum inhibitory concentration (MIC) ([5]; 1 × 10^6 cells/ml): < 0.048 | minimum inhibitory concentration (MIC) ([5]; 1 × 10^8 cells/ml): < 0.048 | minimum inhibitory concentration (MIC) ([6]; 1 × 10^6 cells/ml): < 0.048 | minimum inhibitory concentration (MIC) ([6]; 1 × 10^8 cells/ml): < 0.048 | minimum inhibitory concentration (MIC) ([7]; 1 × 10^6 cells/ml): 0.097 | minimum inhibitory concentration (MIC) ([7]; 1 × 10^8 cells/ml): 0.195 | minimum inhibitory concentration (MIC) ([8]; 1 × 10^6 cells/ml): 1.56 | minimum inhibitory concentration (MIC) ([8]; 1 × 10^8 cells/ml): 3.12 | minimum inhibitory concentration (MIC) ([9]; 1 × 10^6 cells/ml): 0.781 | minimum inhibitory concentration (MIC) ([9]; 1 × 10^8 cells/ml): 1.56 | minimum inhibitory concentration (MIC) ([10]; 1 × 10^6 cells/ml): 1.56 | minimum inhibitory concentration (MIC) ([10]; 1 × 10^8 cells/ml): 1.56 | minimum inhibitory concentration (MIC) ([11]; 1 × 10^6 cells/ml): 1.56 | minimum inhibitory concentration (MIC) ([11]; 1 × 10^8 cells/ml): 1.56 | minimum inhibitory concentration (MIC) ([12]; 1 × 10^6 cells/ml): 0.39 | minimum inhibitory concentration (MIC) ([12]; 1 × 10^8 cells/ml): 0.781 | minimum inhibitory concentration (MIC) ([13]; 1 × 10^6 cells/ml): 0.781 | minimum inhibitory concentration (MIC) ([13]; 1 × 10^8 cells/ml): 1.56
